Test results from patent US10933076B2, “Crocin-sorafenib combination therapy for liver cancer” (United Arab Emirates University, priority 2019, dated 2021).

Tests used:
Format in all cases: in vivo, male Wistar rats
DEN-induced HCC [1] = assay: Histopathological evaluation of liver (H&E) in DEN-induced HCC rats; conditions: HCC groups (FIG. 10)
Description: (§1) In this study, 4 weeks old male Wistar rats were used. The rats were randomly divided into two groups; Control group (n=8) which received 1× PBS via intraperitoneal (i.p.) injection; Experimental group which were injected with DEN at 50 mg/kg b. wt. (Sigma Aldrich, USA) dissolved in PBS once a week for 16 weeks via i.p. This HCC induction protocol was modified from the protocol described by (DePeralta et al., 2016; Schiffer et al., 2005).
(§2) All drugs were orally administered with intragastric (gavage) tube. Doses and route of administration followed what was been previously reported in the literature.
(§3) For the HCC+sorafenib group, sorafenib (Carbosynth Limited) was administered at a dose of 10 mg/kg b.wt. […] A 0.3% solution of DMSO was used to dissolve the sorafenib. […] At the end of the experimental period and after a 24-hour post last drug administration, animals were euthanized using Diethyl ether and sacrificed and dissected under controlled conditions. Blood and liver tissue samples were collected and stored either at room temperature in buffered formalin for histological analysis or at −80 C in PBS for biochemical and immunoblotting analyses.

reticulin network = assay: Reticulin staining of liver sections in DEN-induced HCC rats; conditions: in comparison to HCC groups (FIG. 5)
Description: as §1, §2, §3

DEN-induced HCC [2] = assay: Macroscopic appearance of liver and number of lesions/nodules in DEN-induced HCC rats
Description: as §1, §2, §3

PCNA = assay: Western blot of PCNA in livers of DEN-induced HCC rats; conditions: liver, versus HCC; P<0.01 (FIG. 6)
Description: as §1, §2
For the HCC+sorafenib group, sorafenib (Carbosynth Limited) was administered at a dose of 10 mg/kg b.wt. […]
Liver tissue samples (10 mg) were homogenized in cold RIPA buffer (Sigma Aldrich, USA) 2 μl of protease inhibitor and of phosphatases inhibitor were added to the homogenizing buffer (Sigma Aldrich, USA). Protein concentration of each liver sample was determined using the Bradford method (Bio-Rad, Hercules, Calif.) with the Promega GloMax Discover. […] Variations of gel percentages were used according to the size of protein to be determined. […] Protein bands were then detected using a chemiluminescence solution known as WesternSure PREMIUM, the signal was detected and visualized using the Bio-Rad ChemiDoc XRS+ System. The intensity of the band was measured using the ImageJ software. […]

[3] = test system: intrinsic apoptotic pathway; assay: Western blot of intrinsic apoptotic pathway proteins (Bax, Bcl-2, PARP, pro-caspase-3, pro-caspase-9) in livers of DEN-induced HCC rats
Description: as §1, §2, §3
Liver tissue samples (10 mg) were homogenized in cold RIPA buffer (Sigma Aldrich, USA) 2 μl of protease inhibitor and of phosphatases inhibitor were added to the homogenizing buffer (Sigma Aldrich, USA). Protein concentration of each liver sample was determined using the Bradford method (Bio-Rad, Hercules, Calif.) with the Promega GloMax Discover. In order to blot the proteins into the gel, 2-mercaptoethanol, […], was added to the cell lysate produced from the homogenization of liver tissues. The mixture of the lysate and loading dye was then loaded into the SDS-PAGE gel. Variations of gel percentages were used according to the size of protein to be determined. Following the separation of the protein content of each sample on the SDS-PAGE gel, proteins were transferred onto a PVDF membrane and blocked in 5% BSA in TBST or a 5% (w/v) non-fat milk at room temperature for one hour. After the blocking stage, the membranes were incubated with primary anti-body overnight at 4° C. In this study, the primary antibodies selected here were anti-Proliferating Cell Nuclear Antigen (PCNA), anti-caspase-3 (Cell Signaling Technology Inc.), anti-caspase-9 (Nous Biologicals), anti-PolyADP-ribose Polymerase (PARP), anti-Bcl-2, anti-Bax (Santa Cruz). Following the overnight incubation with primary antibodies, the membranes were extensively washed with TBST and re-probed with secondary antibodies including anti-rabbit IgG (Cell Signaling Technology, Inc, MA, USA) and anti-mouse IgG, and conjugated horseradish peroxidase for 1 hour at room temperature. Protein bands were then detected using a chemiluminescence solution known as WesternSure PREMIUM, the signal was detected and visualized using the Bio-Rad ChemiDoc XRS+ System. The intensity of the band was measured using the ImageJ software. The internal control used was total protein which was stained using the SYPRO Ruby protein gel stain following the protocol instructed by the manufacturer (Thermo Fisher Scientific).
Housekeeping proteins are used as the controls for every western blot analysis. Because of their stable expression in tissues, they are great indicators to validate the integrity of the protein samples loaded into the SDS-PAGE gel, therefore accurately reflecting the amount of proteins in the samples. Current research has investigated the ability of these housekeeping proteins to remain stable under different experimental conditions. […] Therefore, an alternative approach was used to resolve this issue. Total protein was utilized as the loading control; this protocol measures the whole protein content of a sample rather than relying on one protein.

DEN-induced HCC [4] = assay: Liver enzymes (ALT, AST) in serum of DEN-induced HCC rats, colorimetric assay
Description: as §1, §2, §3

[5] = liver, compared to the HCC group alone, P<0.01 (FIG. 8)
[6] = liver, compared to the HCC group, P<0.05 (FIG. 9)

CC(/C=C/C=C(\C)C(=O)O[C@@H]1O[C@H](CO[C@@H]2O[C@H](CO)[C@@H](O)[C@H](O)[C@H]2O)[C@@H](O)[C@H](O)[C@H]1O)=C\C=C\C=C(C)\C=C\C=C(/C)C(=O)O[C@@H]1O[C@H](CO[C@@H]2O[C@H](CO)[C@@H](O)[C@H](O)[C@H]2O)[C@@H](O)[C@H](O)[C@H]1O [crocin, Crocetin di-gentiobiose ester]
architecture of the liver (H&E histology) (DEN-induced HCC [1]): restored to a great degree the normal architecture of the liver
reticulin network / fiber breakage (reticulin network): recovered the damage done by the DEN-induction of cancer
number of liver lesions (DEN-induced HCC [2]; in comparison to the HCC animals (FIG. 4)): reduced the number of lesions
number of liver lesions (DEN-induced HCC [2]; in comparison to the livers of sorafenib alone (HCC+SB) (FIG. 4)): significantly lower numbers of lesions
expression of PCNA (PCNA): significantly lowered the expression of PCNA
expression of PARP ([3]; liver, compared to the HCC group alone, P<0.001 (FIG. 8)): decreased
expression of pro-caspase-3 [3, 5]: decreased
expression of pro-caspase-9 [3, 5]: decreased
expression of anti-apoptotic protein Bcl-2 [3, 6]: significantly (P<0.05) decreased
expression of pro-apoptotic protein Bax [3, 6]: increasing the expression
activation of the intrinsic apoptotic pathway ([3]; western blot analysis (FIGS. 7, 8, 9)): triggered the activation of the intrinsic apoptotic pathway
levels of ALT and AST in the blood (DEN-induced HCC [4]; in comparison to DEN-induced HCC rats (FIG. 11)): great impact on lowering the levels of both ALT and AST
level of ALT in serum (DEN-induced HCC [4]; in comparison to the HCC group, crocin 200 mg/kg b.wt., sorafenib 10 mg/kg b.wt., oral gavage 5 times a week, week 17 to 19, P<0.01): decrease in the level of ALT
level of ALT in serum (DEN-induced HCC [4]; in comparison to the sorafenib alone group (HCC+sorafenib), P<0.05): significantly decreased levels of ALT
